Key:
[1] = system: P. berghei oocyst growth/maturation; experiment: Bioluminescence assay of oocyst growth/maturation in vitro (Day3-Day15); type: cell-based, Plasmodium berghei; details: mean
Experimental: (§1) Purified ookinetes were seeded with Drosophila melanogaster S2 cells (Drosophila Genomics Resource Center, Bloomington, USA) in a 1:10 ratio (10^4 ookinetes and 10^5 S2 cells) in Schneider’s medium (S0146, Sigma-Aldrich) supplemented with 15% FBS, penicillin/streptomycin (50 U/ml, 50 µg/ml) and gentamicin (50 µg/ml) to promote oocyst development. Oocysts were co-cultured with D. melanogaster S2 cells in flat bottom 96-well plates (Corning, New York, USA) for up to 15 days at 19 °C. One-quarter of the medium was changed 3 times per week (every 48 to 72 h), and 10^5 S2 cells were added once per week. In parallel, S2 cells were maintained at 27 °C in Schneider’s medium (S0146, Sigma-Aldrich) supplemented with 10% FBS and penicillin/streptomycin (50 U/ml, 50 µg/ml).
(§2) A bioluminescence assay was used to assess the development of the mosquito stages of PbCSGFP-Luc. In order to evaluate the effect of compounds on the development of the parasite’s mosquito stages, samples were collected at 3 different time points to determine the effect on ookinete and oocyst formation, and oocyst maturation, as previously described. The bioluminescence assay was performed using the Firefly Luciferase Assay Kit (Biotium, Hayward, USA) according to the manufacturer’s instructions, with some modifications. Briefly, the whole well contents were collected and spun down, washed with PBS, frozen in 50 µl of lysis buffer (1:5 ratio) and stored at − 20 °C until further use. Collected samples were lysed and 30 µl of the resulting supernatant were transferred into white 96-well plates. Fifty µl of D-luciferin in Firefly luciferase assay buffer (1:50 ratio) were added to the samples and parasite load was determined by measuring luminescence intensity using a microplate reader (Tecan Infinite M200, Zurich, Switzerland).
(§3) The effect of eprinomectin, abamectin, ivermectin, moxidectin, doramectin and emamectin on the Plasmodium mosquito stages was evaluated as previously described. The compounds were dissolved in dimethyl sulfoxide (DMSO) and the amount of DMSO equivalent to that present in the highest compound concentration was used as a control. The effect of 10 µM of each compound was assessed on ookinetes, and on oocyst development and maturation. Briefly, after 1 h of incubation, the compounds were added to 5 µl of infected blood cultures, and the bioluminescence intensity of the parasites on the ookinete cultures was assessed 24 h later. To assess the effect of the compounds on oocyst development and maturation, compounds were mixed with the mature ookinetes, and parasites collected after 3 days of culture or compounds were added to the oocyst culture after 3 days of culture, and parasites collected 15 days later.
(§4) Compound concentration resulting in 50% inhibition (IC50) for oocyst growth and maturation were estimated for eprinomectin, abamectin, ivermectin, moxidectin, doramectin and emamectin (assayed at 0.05, 0.5, 1, 5, 10, 25 and 50 µM) by nonlinear regression analysis.

[2] = system: P. berghei oocyst formation; experiment: Bioluminescence assay of oocyst formation in vitro (Day0-Day3); type: cell-based, Plasmodium berghei; details: mean
Experimental: as §1, §2, §3, §4

[3] = system: P. berghei ookinete formation; experiment: Bioluminescence assay of ookinete formation in vitro; type: cell-based, Plasmodium berghei; details: 10 µM, 24 h
Experimental: Plasmodium berghei ANKA expressing green fluorescent protein (GFP) and luciferase under the control of the circumsporozoite protein (CSP) promoter (line 784cl1, RMgm-152, PbCSPGFP-Luc) was maintained in Anopheles stephensi mosquitoes and BALB/cByJ mice. To maintain gametocyte infectivity, only up to six passages of parasites from infected to naïve mice were performed. Ookinete in vitro production was performed as previously described. Briefly, BALB/cByJ mice were treated with 0.1 ml phenylhydrazine (25 mg/ml) 3 days prior to infection with 10^7 P. berghei-infected red blood cells (iRBC) obtained from a donor mouse. On the third day after infection, gametocytemia was monitored by light microscopy for the presence of exflagellating gametocytes in ookinete medium (1:4 dilution). […]
A bioluminescence assay was used to assess the development of the mosquito stages of PbCSGFP-Luc. […] Fifty µl of D-luciferin in Firefly luciferase assay buffer (1:50 ratio) were added to the samples and parasite load was determined by measuring luminescence intensity using a microplate reader (Tecan Infinite M200, Zurich, Switzerland).
The effect of eprinomectin, abamectin, ivermectin, moxidectin, doramectin and emamectin on the Plasmodium mosquito stages was evaluated as previously described. […] The effect of 10 µM of each compound was assessed on ookinetes, and on oocyst development and maturation. […]

[4] = system: Drosophila melanogaster S2 cells; experiment: AlamarBlue in vitro cytotoxicity assay; type: cell-based; details: 10 µM, up to 7 days
Experimental: Compounds were screened for their in vitro cytotoxicity against D. melanogaster S2 cells, using the AlamarBlue® assay (Invitrogen, Carlsbad, USA). This assay allows to measure metabolic activity based on a fluoremetric/colorimetric indicator [28]. To assess the effect of the compounds on cell development, Drosophila melanogaster S2 cells were seeded in a 1:10 ratio (10^5 S2 cells) in Schneider’s medium (S0146, Sigma-Aldrich) supplemented with 15% FBS, penicillin/streptomycin (50 U/ml, 50 µg/ml) and gentamicin (50 µg/ml). All the above-mentioned compounds were added to the S2 cell cultures to a final concentration of 10 µM and the amount of DMSO equivalent to that present in the highest compound concentration was used as a control. Cultures were maintained for 7 days and one-quarter of the medium was changed 3 times per week every 48 to 72 h. Samples were collected every day by removing 120 µl of medium and adding 80 µl of AlamarBlue previously diluted in Schneider’s medium (1:10 dilution) to each well. The suspension was transferred to a 96 well flat bottom plate and incubated for one and a half hours at 37 °C. Fluorescence intensity was then measured using a microplate reader (Tecan Infinite M200) at 530 nm excitation wavelength/590 nm emission wavelength to determine cell viability.

[5] = system: P. berghei asexual and sexual blood stages; experiment: In vivo activity of ivermectin against P. berghei blood stages in infected mice (flow cytometry, microscopy); parameters: species or system Plasmodium berghei (BALB/cByJ mice); details: single oral gavage 5 mg/kg, up to 5 days after infection
Source text: Male BALB/cByJ mice (6–8 weeks-old) purchased from Charles River Laboratories Inc. (Lyon, France) were used. Two parasite lines were employed in the experimental work, a transgenic parasite line termed PbCSGFP-Luc (RMgm-152),which expresses the fusion gene gfp-luc under the control of the csp promotor (PBANKA_0403200) integrated into the silent 230p gene locus (PBANKA_0306000), and the transgenic parasite line PbFluo-frmg (RMgm-164), which expresses GFP under control of the ‘male gametocyte-specific’ promoter of PB000791.03.0 (dynein heavy chain, putative) and RFP under the control of the ‘female gametocyte-specific’ promoter PB000504.02.0 (LCCL domain-containing protein CCP2). The rfp and gfp genes are integrated into the genome in the 230p locus (PBANKA_0306000).
In order to assess the in vivo activity of Iv, five BALB/cByJ (Charles River) mice per experimental group were infected by intraperitoneal injection of 10^7 P. berghei Fluo-frmg-infected red blood cells. Parasitaemia and gametocyteamia were measured the following days by flow cytometry analysis of 4 µl of tail blood. Blood was collected in 200 µl of PBS and 100 µl stored at 4 °C, while the remaining was transferred to 100 µl of PBS containing […] of red fluorescent nucleic acid stain Syto®61 (Thermo Fisher Scientific, Waltham, USA) and incubated for 20 min at room temperature in the dark. The samples were analysed on a LSRFortessa X-20 flow cytometer (Becton, Dickinson and Co., New Jersey, USA). Female and male gametocytes were gated based on the analysis of GFP and Red Fluorescence Protein (RFP) fluorescence, and parasitemia was estimated based on the analysis of Syto®61 and forward scatter. The positive cell population was determined by comparison of infected blood samples with an uninfected blood sample. Results were then analysed with the FlowJo^TM Software (Version 10, FlowJo^TM Software, Ashland, USA). Exflagellation was also monitored every day, until parasitemia reached 3% by microscopy analysis. To this end, 2.5 µl of tail blood were collected and mounted on a glass slide, and 8 min later the number of exflagellation events present in 4 independent fields of vision at 40× were determined. When parasitemia reached up to 3%, either DMSO or ivermectin were administered by oral gavage, at a concentration of 5 mg/kg, to five mice of each experimental group. Parasitemia, gametocytemia and exflagellation were monitored for 3 days after treatment, following which the mice were euthanized, and the experiment was terminated.

abamectin
IC50 [1]: 7.93 µM
IC50 [2]: 8.77 µM

eprinomectin
IC50 [1]: 4.59 µM
IC50 [2]: 5.7 µM

emamectin
IC50 [1]: 7.36 µM
inhibition of ookinete formation (transformation of gametes/zygote into ookinetes) [3]: approximately 47%
IC50 [2]: 7.31 µM
cytotoxicity against S2 cells (cell viability) [4]: displays some cytotoxicity

CO[C@H]1C[C@H](O[C@H]2[C@H](C)O[C@@H](O[C@@H]3/C(C)=C/C[C@@H]4C[C@@H](C[C@]5(C=C[C@H](C)[C@@H](C6CCCCC6)O5)O4)OC(=O)[C@@H]4C=C(C)[C@@H](O)[C@H]5OC/C(=C\C=C\[C@@H]3C)[C@]54O)C[C@@H]2OC)O[C@@H](C)[C@@H]1O [Doramectin, doramectin]
IC50 [1]: 4.32 µM
IC50 [2]: 7.08 µM

CO/N=C1\C[C@]2(C[C@@H]3C[C@@H](C/C=C(\C)C[C@@H](C)/C=C/C=C4\CO[C@@H]5[C@H](O)C(C)=C[C@@H](C(=O)O3)[C@]45O)O2)O[C@H](/C(C)=C/C(C)C)[C@H]1C [Moxidectin, moxidectin]
IC50 ([1]; Plasmodium berghei): 5.49 µM
IC50 ([2]; Plasmodium berghei): 10.8 µM

ivermectin
IC50 [1]: 9.32 µM
exflagellation events vs untreated controls [5]: no statistically significant differences
female gametocytemia vs untreated controls [5]: no statistically significant differences
male gametocytemia vs untreated controls [5]: no statistically significant differences
overall parasitemia vs untreated controls [5]: no statistically significant differences
inhibition of ookinete formation (transformation of gametes/zygote into ookinetes) [3]: very small and non-significant impact
IC50 [2]: 11.6 µM
